Data on 1 compound can be found in ChEMBL document CHEMBL3244163, “Antifungal agents. 5. Chemical modification of antibiotics from Polyangium cellulosum var. fulvum. Alcohol, ketone, aldehyde, and oxime analogues of ambruticin” (1979).

Molecules are shown by their SMILES. Values after ≈ are worked out from the molar mass of the structure shown. Active and inactive are the calls of the source. No cut-off for these calls is given here.

The test system of one experiment is Histoplasma capsulatum. In words: Antifungal activity against Histoplasma capsulatum assessed as growth inhibition after 3 days by standard broth dilution technique. The class given is functional. The settings on record: 72 h. In general terms: In broth dilution the organism is exposed to a series of concentrations in liquid medium.
Another experiment relates to Candida albicans. Put plainly: Antifungal activity against Candida albicans by standard broth dilution technique. The class given is functional, organism-based.
The next experiment deals with Streptococcus pyogenes. In words: Antibacterial activity against Streptococcus pyogenes by standard broth dilution technique. The class given is functional, organism-based.
Experiment [1] can be described thus: Antifungal activity against Microsporum fulvum assessed as growth inhibition after 3 days by standard broth dilution technique. The class given is functional. The conditions noted are these: Arthroderma fulvum.

On to `CC[C@H]1O[C@@H](/C(C)=C/[C@H](C)/C=C/[C@H]2[C@@H](C)[C@@H]2/C=C/[C@@H]2O[C@H](CC=O)C[C@H](O)[C@H]2O)CC=C1C`, for which the MIC in the experiment on Histoplasma capsulatum is 0.78 µg/mL (≈ 1.7 µM); in experiment [1] it was 0.098 µg/mL (≈ 0.214 µM). Besides, the result in the experiment with Candida albicans and with Streptococcus pyogenes was inactive.

One may read the MIC as the least concentration at which growth counts as inhibited.
